Data taken from PubChem BioAssay AID1745844 (Carcinogenic Potency Database (CPDB), 2022).
Calls of active or inactive are those of the source. How the calls were made is not given here.

Test system: rodent lifetime carcinogenesis bioassay, tumor incidence TD50
Test: carcinogenic potency in animals, long-term in vivo studies, CPDB compilation (AID 1745844)
[1] = rat, strain Fischer 344, females, in feed, site: any site (literature study), lesion: several types, types named in the paper, dosed 103 weeks, study length 105 weeks

## Cc1cc(C)nc(-c2ccc([N+](=O)[O-])o2)n1
rat, strain Sprague-Dawley, females, in feed, site: forestomach, lesion: squamous-cell carcinoma, dosed 42 weeks, study length 59 weeks
  carcinogen call: positive
rat, strain Sprague-Dawley, females, in feed, site: intestine, lesion: hemangioendothelial sarcoma, dosed 42 weeks, study length 59 weeks
  TD50: 3.43 mg/kg/day
rat, strain Sprague-Dawley, females, in feed, site: intestine, lesion: sarcoma, dosed 42 weeks, study length 59 weeks
  TD50: 2.61 mg/kg/day
rat, strain Sprague-Dawley, females, in feed, site: kidney, lesion: transitional-cell carcinoma, dosed 42 weeks, study length 59 weeks
  TD50: 45.5 mg/kg/day
rat, strain Sprague-Dawley, females, in feed, site: mammary gland, lesion: adenocarcinoma, dosed 42 weeks, study length 59 weeks
  TD50: 6.45 mg/kg/day

## CC1=NN(c2ccccc2)C(=O)C1
mouse, strain B6C3F1, females, in feed, site: any site (literature study), lesion: several types, types named in the paper, dosed 102 weeks, study length 104 weeks
  carcinogen call: negative (inactive)
mouse, strain B6C3F1, males, in feed, site: any site (literature study), lesion: several types, types named in the paper, dosed 102 weeks, study length 104 weeks
  carcinogen call: negative (inactive)
[1]
  carcinogen call: negative (inactive)
rat, strain Fischer 344, males, in feed, site: any site (literature study), lesion: several types, types named in the paper, dosed 103 weeks, study length 105 weeks
  carcinogen call: negative (inactive)
rat, strain Fischer 344, males, in feed, site: liver, lesion: hepatocellular adenoma + hepatocellular carcinoma + neoplastic nodule, dosed 103 weeks, study length 105 weeks
  TD50: 3700 mg/kg/day

## Cc1ccc([N+](=O)[O-])cc1N
mouse, strain B6C3F1, females, in feed, site: all sites + liver, lesion: hemangiosarcoma + hepatocellular carcinoma, dosed 78 weeks, study length 96 weeks
  TD50: 242 mg/kg/day
mouse, strain B6C3F1, females, in feed, site: all sites, lesion: hemangiosarcoma, dosed 78 weeks, study length 96 weeks
  TD50: 1860 mg/kg/day
mouse, strain B6C3F1, females, in feed, site: any site (literature study), lesion: several types, types named in the paper, dosed 78 weeks, study length 96 weeks
  TD50: 989 mg/kg/day
mouse, strain B6C3F1, females, in feed, site: liver, lesion: hepatocellular adenoma + hepatocellular carcinoma + neoplastic nodule, dosed 78 weeks, study length 96 weeks
  TD50: 288 mg/kg/day
mouse, strain B6C3F1, females, in feed, site: liver, lesion: hepatocellular carcinoma, dosed 78 weeks, study length 96 weeks
  TD50: 288 mg/kg/day
mouse, strain B6C3F1, males, in feed, site: all sites + liver, lesion: hemangioma + hemangiosarcoma + hepatocellular carcinoma, dosed 78 weeks, study length 95 weeks
  TD50: 269 mg/kg/day
mouse, strain B6C3F1, males, in feed, site: all sites, lesion: hemangioma + hemangiosarcoma, dosed 78 weeks, study length 95 weeks
  TD50: 2550 mg/kg/day
mouse, strain B6C3F1, males, in feed, site: any site (literature study), lesion: several types, types named in the paper, dosed 78 weeks, study length 95 weeks
  TD50: 431 mg/kg/day
mouse, strain B6C3F1, males, in feed, site: liver, lesion: hepatocellular adenoma + hepatocellular carcinoma + neoplastic nodule, dosed 78 weeks, study length 95 weeks
  TD50: 266 mg/kg/day
mouse, strain B6C3F1, males, in feed, site: liver, lesion: hepatocellular carcinoma, dosed 78 weeks, study length 95 weeks
  TD50: 266 mg/kg/day
rat, strain Fischer 344, females, in feed, site: any site (literature study), lesion: several types, types named in the paper, dosed 78 weeks, study length 108 weeks
  carcinogen call: negative (inactive)
rat, strain Fischer 344, females, in feed, site: liver, lesion: hepatocellular adenoma + hepatocellular carcinoma + neoplastic nodule, dosed 78 weeks, study length 108 weeks
  TD50: 43 mg/kg/day
rat, strain Fischer 344, males, in feed, site: any site (literature study), lesion: several types, types named in the paper, dosed 78 weeks, study length 107 weeks
  TD50: 43.7 mg/kg/day
rat, strain Fischer 344, males, in feed, site: liver, lesion: hepatocellular carcinoma, dosed 78 weeks, study length 107 weeks
  TD50: 27.7 mg/kg/day (inactive)

## CCN(CC)C(=O)c1cccc(C)c1
mouse, strain Charles River CD1, females, in feed, site: liver, lesion: hepatocellular adenoma, dosed 78 weeks, study length 78 weeks
  TD50: 150000 mg/kg/day (inactive)
mouse, strain Charles River CD1, females, in feed, site: liver, lesion: hepatocellular carcinoma, dosed 78 weeks, study length 78 weeks
  TD50: 87000 mg/kg/day (inactive)
mouse, strain Charles River CD1, females, in feed, site: lung, lesion: alveolar/bronchiolar adenoma, dosed 78 weeks, study length 78 weeks
  TD50: 14500 mg/kg/day (inactive)
mouse, strain Charles River CD1, males, in feed, site: liver, lesion: hepatocellular adenoma, dosed 78 weeks, study length 78 weeks
  TD50: 2580 mg/kg/day (inactive)
mouse, strain Charles River CD1, males, in feed, site: liver, lesion: hepatocellular carcinoma, dosed 78 weeks, study length 78 weeks
  TD50: 11500 mg/kg/day (inactive)
mouse, strain Charles River CD1, males, in feed, site: lung, lesion: alveolar/bronchiolar adenoma, dosed 78 weeks, study length 78 weeks
  carcinogen call: negative (inactive)
rat, strain Charles River CD (Sprague-Dawley), females, in feed, site: liver, lesion: hepatocellular adenoma, dosed 104 weeks, study length 104 weeks
  TD50: 16700 mg/kg/day (inactive)
rat, strain Charles River CD (Sprague-Dawley), females, in feed, site: liver, lesion: hepatocellular carcinoma, dosed 104 weeks, study length 104 weeks
  carcinogen call: negative (inactive)
rat, strain Charles River CD (Sprague-Dawley), males, in feed, site: liver, lesion: hepatocellular adenoma, dosed 104 weeks, study length 104 weeks
  TD50: 3390 mg/kg/day (inactive)
rat, strain Charles River CD (Sprague-Dawley), males, in feed, site: liver, lesion: hepatocellular carcinoma, dosed 104 weeks, study length 104 weeks
  carcinogen call: negative (inactive)

## CCCCC(CC)COC(=O)CCCCC(=O)OCC(CC)CCCC (configuration not stated)
mouse, strain B6C3F1, females, in feed, site: liver, lesion: hepatocellular adenoma + hepatocellular carcinoma + neoplastic nodule, dosed 103 weeks, study length 105 weeks
  TD50: 3840 mg/kg/day
mouse, strain B6C3F1, females, in feed, site: liver, lesion: hepatocellular adenoma + hepatocellular carcinoma, dosed 103 weeks, study length 105 weeks
  TD50: 3840 mg/kg/day
mouse, strain B6C3F1, females, in feed, site: liver, lesion: hepatocellular carcinoma, dosed 103 weeks, study length 105 weeks
  TD50: 3050 mg/kg/day
mouse, strain B6C3F1, males, in feed, site: liver, lesion: hepatocellular adenoma + hepatocellular carcinoma + neoplastic nodule, dosed 103 weeks, study length 104 weeks
  TD50: 5330 mg/kg/day
mouse, strain B6C3F1, males, in feed, site: liver, lesion: hepatocellular adenoma + hepatocellular carcinoma, dosed 103 weeks, study length 104 weeks
  TD50: 5330 mg/kg/day
mouse, strain B6C3F1, males, in feed, site: liver, lesion: hepatocellular adenoma, dosed 103 weeks, study length 104 weeks
  TD50: 9040 mg/kg/day
mouse, strain B6C3F1, males, in feed, site: lung, lesion: alveolar/bronchiolar adenoma + alveolar/bronchiolar carcinoma, dosed 103 weeks, study length 104 weeks
  TD50: 11700 mg/kg/day
[1]
  carcinogen call: negative (inactive)
rat, strain Fischer 344, females, in feed, site: liver, lesion: hepatocellular adenoma + hepatocellular carcinoma + neoplastic nodule, dosed 103 weeks, study length 105 weeks
  TD50: 14500 mg/kg/day
rat, strain Fischer 344, males, in feed, site: any site (literature study), lesion: several types, types named in the paper, dosed 103 weeks, study length 104 weeks
  carcinogen call: negative (inactive)

## O=[N+]([O-])c1ccc(-c2cscn2)o1
rat, strain Sprague-Dawley albino, females, in feed, site: any site (literature study), lesion: several types, types named in the paper, dosed 46 weeks, study length 68 weeks
  TD50: 7.68 mg/kg/day
rat, strain Sprague-Dawley albino, females, in feed, site: forestomach, lesion: squamous-cell carcinoma, dosed 46 weeks, study length 68 weeks
  TD50: 19.5 mg/kg/day
rat, strain Sprague-Dawley albino, females, in feed, site: mammary gland, lesion: fibroadenoma, dosed 46 weeks, study length 68 weeks
  TD50: 15.6 mg/kg/day

## O=NN(CCO)C(=O)NCCCl
rat, strain Fischer 344, females, by gavage, site: all sites, lesion: mononuclear-cell leukemia, dosed 40 weeks, study length 115 weeks
  TD50: 0.76 mg/kg/day
rat, strain Fischer 344, females, by gavage, site: kidney tubule, lesion: several types, types named in the paper, dosed 40 weeks, study length 115 weeks
  TD50: 4.38 mg/kg/day
rat, strain Fischer 344, females, by gavage, site: liver, lesion: cholangiocarcinoma, dosed 40 weeks, study length 115 weeks
  TD50: 4.38 mg/kg/day
rat, strain Fischer 344, females, by gavage, site: liver, lesion: hepatocellular carcinoma, dosed 40 weeks, study length 115 weeks
  TD50: 0.653 mg/kg/day
rat, strain Fischer 344, females, by gavage, site: liver, lesion: neoplastic nodule, dosed 40 weeks, study length 115 weeks
  TD50: 0.564 mg/kg/day
rat, strain Fischer 344, females, by gavage, site: liver, lesion: several types, types named in the paper, dosed 40 weeks, study length 115 weeks
  TD50: 0.488 mg/kg/day
rat, strain Fischer 344, females, in drinking water, site: liver, lesion: one or several types, types not named, dosed 30 weeks, study length 104 weeks
  TD50: 1.19 mg/kg/day
rat, strain Fischer 344, females, in drinking water, site: uterus, lesion: one or several types, types not named, dosed 30 weeks, study length 104 weeks
  TD50: 0.669 mg/kg/day
rat, strain Fischer 344, males, by gavage, site: kidney tubule, lesion: several types, types named in the paper, dosed 35 weeks, study length 120 weeks
  TD50: 0.663 mg/kg/day
rat, strain Fischer 344, males, by gavage, site: liver, lesion: cholangiocarcinoma, dosed 35 weeks, study length 120 weeks
  TD50: 0.926 mg/kg/day
rat, strain Fischer 344, males, by gavage, site: liver, lesion: hepatocellular carcinoma, dosed 35 weeks, study length 120 weeks
  TD50: 0.233 mg/kg/day
rat, strain Fischer 344, males, by gavage, site: liver, lesion: neoplastic nodule, dosed 35 weeks, study length 120 weeks
  TD50: 1.19 mg/kg/day
rat, strain Fischer 344, males, by gavage, site: liver, lesion: several types, types named in the paper, dosed 35 weeks, study length 120 weeks
  TD50: 0.15 mg/kg/day
rat, strain Fischer 344, males, in drinking water, site: liver, lesion: one or several types, types not named, dosed 30 weeks, study length 104 weeks
  TD50: 0.59 mg/kg/day

## NCCCC(N)(C(=O)O)C(F)F (configuration not stated)
rat, strain Wistar, males, in feed, site: stomach, glandular, lesion: one or several types, types not named, dosed 70 weeks, study length 70 weeks
  carcinogen call: negative (inactive)
